Measured values as given in patent publication US7576094B2, “Spiro derivatives as lipoxygenase inhibitors” (Eli Lilly and Company, priority 2004, dated 2009).

Tests used:
[1] = system: release of the leukotriene LTB4 from a neutrophil cell line (MPRO cell line); assay: LTB4-Cell Assay; assay type: cell-based; conditions: Mus musculus, 1 h, read-out: inhibition of LTB4 with an EC50
Procedure, shortened: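 Mouse promyelocytic cells differentiated to neutrophils with 10 μM all-trans retinoic acid for 72 h, then stimulated with 1 μM A23187 plus compound for 1 h at 37° C. Supernatant LTB4 quantified by competitive EIA; 5 concentrations in quadruplicate from 10 μM top.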

[2] = molecular target: T1, porcine leukocyte 12/15-Lipoxygenase (Sus scrofa, UniProt P16469); assay: 12/15-Lipoxygenase Enzyme Assay; assay type: biochemical; conditions: 70 μM arachidonic acid, 10 minute incubation at room temperature, FOX reagent, absorbance at 620 nm; read-out: inhibition of 12/15-Lipoxygenase with an IC50
T1 sequence (P16469 1-663): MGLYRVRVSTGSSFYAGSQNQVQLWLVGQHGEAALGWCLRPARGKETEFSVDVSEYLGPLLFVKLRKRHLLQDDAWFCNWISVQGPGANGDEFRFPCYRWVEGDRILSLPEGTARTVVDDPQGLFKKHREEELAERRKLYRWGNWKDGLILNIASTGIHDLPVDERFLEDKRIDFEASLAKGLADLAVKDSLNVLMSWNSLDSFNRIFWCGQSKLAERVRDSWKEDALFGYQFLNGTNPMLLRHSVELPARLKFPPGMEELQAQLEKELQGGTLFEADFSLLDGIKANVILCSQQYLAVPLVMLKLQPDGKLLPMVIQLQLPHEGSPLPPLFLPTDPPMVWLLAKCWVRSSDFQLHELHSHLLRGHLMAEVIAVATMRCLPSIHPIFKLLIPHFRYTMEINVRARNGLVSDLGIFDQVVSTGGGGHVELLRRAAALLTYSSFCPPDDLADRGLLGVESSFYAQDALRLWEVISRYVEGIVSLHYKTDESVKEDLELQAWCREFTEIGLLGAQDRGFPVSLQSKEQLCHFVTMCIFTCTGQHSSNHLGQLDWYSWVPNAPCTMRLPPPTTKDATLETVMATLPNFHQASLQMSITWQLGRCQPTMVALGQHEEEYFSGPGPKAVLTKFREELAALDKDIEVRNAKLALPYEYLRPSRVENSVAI
Excerpt: This procedure was used for measuring the enzymatic activity of porcine leukocyte 12/15-Lipoxygenase using a […] method based on the ferric oxidation of xylenol orange.
• 96 well flat bottom microfilter plates (VWR, Catalog # 62402-933 9295) • Lipoxygenase screening assay buffer (Cayman, Catalog # 760710) • Porcine leukocyte 12/15-Lipoxygenase (Cayman, Catalog # 60300) • Arachidonic Acid (Sigma, Catalog # A3555) • Xylenol orange tetrasodium salt (Aldrich, Catalog # 227854) • Iron (II) sulfate heptahydrate (Sigma, Catalog # F7002) • Sulfuric acid (95-98%) [18M] • Methanol Procedure
Porcine Leukocyte 12/15-Lipoxygenase (Cayman Cat # 60300) was used in this assay. Test compound and/or vehicle was added to 1.3 μL 12/15-Lipoxygenase in 50 mM Tris-HCl buffer, pH 7.4. The reaction was initiated by addition of 70 μM arachidonic acid in Tris-HCl buffer, pH 7.4, and terminated after a 10 minute incubation at room temperature by addition of FOX reagent (25 mM sulfuric acid, 100 μM xylenol orange, 100 μM iron (II) sulfate, methanol:water 9:1). The yellow color of acidified xylenol orange was converted to a blue color by the lipid hydroperoxide-mediated oxidation of Fe^2+ ions and the interaction of the resulting Fe^3+ ions with the dye. The complex was allowed to form during a 1 hour incubation at room temperature with shaking. Absorbance of the Fe^3+ complex was then measured at […] using a spectrophotometer.
Negative controls contained enzyme during the incubation step but substrate was not added until after the FOX reagent. Compounds are screened at 5 concentrations in triplicate starting at 10 μM

[3] = molecular target: T2, human recombinant 5-Lipoxygenase (Homo sapiens, UniProt P09917); assay: 5-Lipoxygenase Enzyme Assay; assay type: biochemical; conditions: 70 μM arachidonic acid, 10 minute incubation at room temperature, FOX reagent, absorbance at 620 nm; read-out: inhibition of 5-Lipoxygenase with an IC50
T2 sequence (P09917 1-674): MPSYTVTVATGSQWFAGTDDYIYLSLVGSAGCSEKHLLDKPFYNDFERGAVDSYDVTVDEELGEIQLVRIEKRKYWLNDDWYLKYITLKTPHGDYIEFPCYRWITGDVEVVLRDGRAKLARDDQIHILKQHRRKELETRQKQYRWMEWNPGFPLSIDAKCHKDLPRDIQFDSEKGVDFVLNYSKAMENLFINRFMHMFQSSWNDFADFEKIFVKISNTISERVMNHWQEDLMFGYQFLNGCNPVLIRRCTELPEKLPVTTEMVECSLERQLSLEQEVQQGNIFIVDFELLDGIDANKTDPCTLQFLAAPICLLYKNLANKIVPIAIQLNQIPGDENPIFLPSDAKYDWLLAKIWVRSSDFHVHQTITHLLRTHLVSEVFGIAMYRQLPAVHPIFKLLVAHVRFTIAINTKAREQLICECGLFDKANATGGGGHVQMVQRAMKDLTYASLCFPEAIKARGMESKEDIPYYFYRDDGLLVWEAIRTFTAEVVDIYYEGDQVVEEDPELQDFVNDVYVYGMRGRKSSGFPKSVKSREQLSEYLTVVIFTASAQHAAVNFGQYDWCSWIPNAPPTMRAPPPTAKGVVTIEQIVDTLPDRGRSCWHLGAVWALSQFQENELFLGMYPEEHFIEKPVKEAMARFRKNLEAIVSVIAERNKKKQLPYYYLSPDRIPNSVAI
Procedure, shortened: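 Recombinant human 5-LOX in 50 mM Tris-HCl pH 7.4 was preincubated with compound, then 70 μM arachidonic acid was added for 10 min at room temperature. Hydroperoxide was read by FOX reagent (ferric xylenol orange, 1 h complex formation) as absorbance at 620 nm. Five concentrations in triplicate were tested, starting at 10 μM.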

[4] = system: LTB4 production in human whole blood; assay: Inhibition of LTB4 Production in Blood; assay type: cell-based; conditions: 1 h, 20 μM A23187, 60 minutes at 37° C., LTB4 in plasma by ELISA, read-out: protection against LTB4 at an EC50
Procedure, shortened: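 Citrated human whole blood preincubated 15 min at 37 °C with compound (top final 30 μM, 1:3 dilutions, quadruplicate), then stimulated with 20 μM A23187 for 60 min at 37 °C. Plasma LTB4 quantified by ELISA; IC50 from percent inhibition versus vehicle.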

Structure (SMILES) | EC50 [1] [µM] | IC50 [2] [µM] | IC50 [3] [µM] | EC50 [4] [µM]
Cc1c(C)c2c(c(C)c1O)CCC1(CCC1)S2 [5′,7′,8′-trimethyl-3′,4′-dihydrospiro[cyclobutane-1,2′-thiochromen]-6′-ol] | < 5 | < 5 | < 0.3 | –
Cc1c(C)c2c(c(C)c1O)C=CC1(CCC1)S2 [5′,7′,8′-trimethylspiro[cyclobutane-1,2′-thiochromen]-6′-ol] | < 5 | < 5 | < 0.3 | –
Cc1c(C)c2c(c(C)c1O)C(OC(=O)Nc1ccccc1)CCS2 (stereo not drawn) [6-hydroxy-5,7,8-trimethylthiochroman-4-yl phenylcarbamate] | < 5 | < 5 | < 0.3 | –
CO/N=C/C1=Cc2c(cc(C)c(O)c2C)OC12CCC2 [6-hydroxy-5,7-dimethylspiro[chromene-2,1′-cyclobutane]-3-carbaldehyde O-methyloxime] | < 5 | < 5 | – | < 10
Cc1c(O)c(Cl)c(C)c2c1CCC1(CCC1)O2 [7-chloro-5,8-dimethyl-3,4-dihydrospiro[chromene-2,1′-cyclobutan]-6-ol] | < 5 | < 5 | < 0.3 | –
Cc1c(O)c(C)c2c(c1Cl)OC1(CCC1)CC2 [8-chloro-5,7-dimethyl-3,4-dihydrospiro[chromene-2,1′-cyclobutan]-6-ol] | < 5 | < 5 | < 0.3 | –
Cc1c(O)cc(Cl)c2c1CCC1(CCC1)O2 [8-chloro-5-methyl-3,4-dihydrospiro[chromene-2,1′-cyclobutan]-6-ol] | < 5 | < 5 | < 0.3 | –
COC(=O)CSCC1Cc2c(C)c(O)c(C)c(C)c2OC12CCC2 (stereo not drawn) [methyl {[(6-hydroxy-5,7,8-trimethyl-3,4-dihydrospiro[chromene-2,1′-cyclobutan]-3-yl)methyl]thio}acetate] | < 5 | < 5 | < 0.3 | –
